Calls of active or inactive are those of the source. No cut-off for these calls is given here. Some results are limits rather than exact numbers.

Experiment [1] concerns the target T1, Bone morphogenetic protein receptor type-2 (Homo sapiens) (UniProt Q13873).
T1 sequence (whole entry): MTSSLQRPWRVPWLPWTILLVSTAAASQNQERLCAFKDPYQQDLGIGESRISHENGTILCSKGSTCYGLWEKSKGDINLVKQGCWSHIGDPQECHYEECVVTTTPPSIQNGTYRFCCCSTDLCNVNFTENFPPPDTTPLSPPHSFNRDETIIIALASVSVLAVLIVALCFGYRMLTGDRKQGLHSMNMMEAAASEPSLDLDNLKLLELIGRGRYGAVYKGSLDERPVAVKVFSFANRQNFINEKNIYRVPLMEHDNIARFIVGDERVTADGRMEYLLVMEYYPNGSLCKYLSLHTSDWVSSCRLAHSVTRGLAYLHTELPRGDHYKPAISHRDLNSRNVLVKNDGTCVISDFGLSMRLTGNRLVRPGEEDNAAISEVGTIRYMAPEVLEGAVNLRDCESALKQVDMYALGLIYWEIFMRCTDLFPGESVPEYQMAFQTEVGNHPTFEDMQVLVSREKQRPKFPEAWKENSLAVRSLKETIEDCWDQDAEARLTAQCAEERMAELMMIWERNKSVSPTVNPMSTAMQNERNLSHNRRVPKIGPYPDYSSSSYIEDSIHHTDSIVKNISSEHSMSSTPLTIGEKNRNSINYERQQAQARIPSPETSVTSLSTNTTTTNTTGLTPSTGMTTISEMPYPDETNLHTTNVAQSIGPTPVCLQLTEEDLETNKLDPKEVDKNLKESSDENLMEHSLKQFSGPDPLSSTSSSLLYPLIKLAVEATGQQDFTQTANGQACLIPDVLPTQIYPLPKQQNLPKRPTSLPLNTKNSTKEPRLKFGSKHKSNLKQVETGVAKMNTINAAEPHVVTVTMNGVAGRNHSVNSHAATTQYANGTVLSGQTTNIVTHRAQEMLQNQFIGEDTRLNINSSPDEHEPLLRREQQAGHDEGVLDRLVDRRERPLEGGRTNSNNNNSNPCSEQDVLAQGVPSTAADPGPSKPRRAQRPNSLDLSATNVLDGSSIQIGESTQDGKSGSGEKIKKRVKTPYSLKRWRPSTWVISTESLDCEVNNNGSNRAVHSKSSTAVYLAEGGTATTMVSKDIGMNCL
Kind of experiment: Inhibition of BMPR2 (unknown origin) at 1 uM relative to control.

Experiment [2] addresses Mitogen-activated protein kinase 10 (Homo sapiens) (UniProt P53779). The experiment can be described thus: Inhibition of JNK3 (unknown origin) at 1 uM relative to control.
Experiment [3] relates to Splenocyte. The experiment can be described thus: Immunosuppressive activity in anti-CD3/CD28 stimulated BALB/c mouse Splenocyte assessed as reduction in IL-17A cytokine level incubated for 48 hrs by ELISA assay. Type of experiment: functional, cell-based. A general note: In an ELISA, binding on a coated surface is turned into a signal by an enzyme label.
Another experiment deals with Jurkat. Kind of experiment: Immunosuppressive activity in anti-CD3/CD28 stimulated human Jurkat cells assessed as reduction in LAT phosphorylation level at 100 to 400 nM incubated for 48 hrs by Western blotting analysis. The settings on record: dose 100-400 nM. Type of experiment: functional, cell-based.
The target of experiment [4] is Tyrosine-protein kinase SYK (Homo sapiens, UniProt P43405). Kind of experiment: Inhibition of SYK (unknown origin) using ULight-TK peptide as substrate at 1 uM incubated for 120 mins in presence of ATP by Lance Ultra Kinase assay relative to control.
Experiment [5] deals with Splenocyte. Kind of experiment: Immunosuppressive activity in LPS-induced BALB/c mouse Splenocyte assessed as effect on CD69 expression at 100 to 400 nM incubated for 48 hrs by flow cytometry analysis. The format is functional, cell-based. To be noted: dose 100-400 nM. For orientation: In flow cytometry, cells or beads pass a laser one at a time.
The subject of experiment [6] is Splenocyte. Kind of experiment: Immunosuppressive activity in BALB/c mouse Splenocyte assessed as reduction in frequency of CD69 positive CD4 positive T cells at 400 nM incubated for 48 hrs by flow cytometry analysis (reference value: 21.3%). Further details: scale not given: the % may be the effect or the level left. Type of experiment: functional.
For experiment [7], the target named is T2, Serine/threonine-protein kinase PLK4 (Homo sapiens) (UniProt O00444).
T2 sequence (whole entry): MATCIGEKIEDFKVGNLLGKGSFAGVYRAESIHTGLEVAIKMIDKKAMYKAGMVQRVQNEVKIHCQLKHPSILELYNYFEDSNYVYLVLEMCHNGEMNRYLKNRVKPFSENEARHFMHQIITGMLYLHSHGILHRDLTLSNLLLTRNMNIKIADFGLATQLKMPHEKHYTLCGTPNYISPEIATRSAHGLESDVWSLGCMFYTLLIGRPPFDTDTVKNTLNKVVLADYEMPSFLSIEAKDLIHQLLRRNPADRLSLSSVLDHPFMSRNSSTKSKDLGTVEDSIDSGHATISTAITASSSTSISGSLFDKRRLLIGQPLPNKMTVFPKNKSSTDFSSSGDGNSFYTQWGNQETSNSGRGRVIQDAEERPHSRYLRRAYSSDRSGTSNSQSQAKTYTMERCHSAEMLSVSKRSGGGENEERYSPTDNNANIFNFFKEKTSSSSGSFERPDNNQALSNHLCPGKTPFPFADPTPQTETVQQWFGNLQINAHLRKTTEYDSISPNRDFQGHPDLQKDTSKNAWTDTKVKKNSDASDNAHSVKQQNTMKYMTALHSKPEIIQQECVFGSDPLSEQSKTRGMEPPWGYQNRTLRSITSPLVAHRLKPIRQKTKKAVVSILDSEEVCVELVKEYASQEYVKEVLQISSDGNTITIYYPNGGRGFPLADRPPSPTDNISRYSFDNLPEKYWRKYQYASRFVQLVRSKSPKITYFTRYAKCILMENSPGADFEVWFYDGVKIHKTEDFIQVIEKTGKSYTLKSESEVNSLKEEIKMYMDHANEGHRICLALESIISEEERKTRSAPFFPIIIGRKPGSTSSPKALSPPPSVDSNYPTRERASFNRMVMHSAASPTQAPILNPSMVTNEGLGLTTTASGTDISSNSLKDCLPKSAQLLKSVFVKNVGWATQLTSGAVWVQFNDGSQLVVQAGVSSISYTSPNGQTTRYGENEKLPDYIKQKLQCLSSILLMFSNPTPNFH
Kind of experiment: Inhibition of PLK4 (unknown origin) at 1 uM relative to control.

In experiment [8] the target is Mitogen-activated protein kinase 9 (Homo sapiens) (UniProt P45984). The experiment can be described thus: Inhibition of JNK2 (unknown origin) at 1 uM relative to control.
The test system of experiment [9] is Mus musculus. The experiment can be described thus: Anti-inflammatory activity in imiquimod-induced BALB/c mouse psoriasis model assessed as decrease in splenomegaly at TOP administration, 2 % applied for 7 days. Type of experiment: functional, organism-based. The settings on record: time 7.0 day.
Experiment [10] concerns Splenocyte. The experiment can be described thus: Immunosuppressive activity in anti-CD3/CD28 stimulated BALB/c mouse Splenocyte assessed as reduction in IFN-gamma cytokine level incubated for 48 hrs by ELISA assay. The format is functional, cell-based.
Experiment [11] deals with Mus musculus. The experiment can be described thus: Anti-inflammatory activity in imiquimod-induced BALB/c mouse psoriasis model assessed as reduction in skin inflammation at TOP administration, 2 % applied for 7 days. Type of experiment: functional, organism-based. To be noted: time 7.0 day.
Experiment [12] concerns Mus musculus. The experiment can be described thus: Anti-inflammatory activity in imiquimod-induced BALB/c mouse psoriasis model assessed as […] in skin thickness at TOP administration, 2 % applied for 7 days by hematoxylin and eosin staining based assay. To be noted: time 7.0 day. The format is functional, organism-based.
The target in experiment [13] is Tyrosine-protein kinase receptor UFO (Homo sapiens) (UniProt P30530). Kind of experiment: Inhibition of AXL (unknown origin) at 1 uM relative to control.
Chain of Tyrosine-protein kinase receptor UFO (Homo sapiens) (P30530 whole entry): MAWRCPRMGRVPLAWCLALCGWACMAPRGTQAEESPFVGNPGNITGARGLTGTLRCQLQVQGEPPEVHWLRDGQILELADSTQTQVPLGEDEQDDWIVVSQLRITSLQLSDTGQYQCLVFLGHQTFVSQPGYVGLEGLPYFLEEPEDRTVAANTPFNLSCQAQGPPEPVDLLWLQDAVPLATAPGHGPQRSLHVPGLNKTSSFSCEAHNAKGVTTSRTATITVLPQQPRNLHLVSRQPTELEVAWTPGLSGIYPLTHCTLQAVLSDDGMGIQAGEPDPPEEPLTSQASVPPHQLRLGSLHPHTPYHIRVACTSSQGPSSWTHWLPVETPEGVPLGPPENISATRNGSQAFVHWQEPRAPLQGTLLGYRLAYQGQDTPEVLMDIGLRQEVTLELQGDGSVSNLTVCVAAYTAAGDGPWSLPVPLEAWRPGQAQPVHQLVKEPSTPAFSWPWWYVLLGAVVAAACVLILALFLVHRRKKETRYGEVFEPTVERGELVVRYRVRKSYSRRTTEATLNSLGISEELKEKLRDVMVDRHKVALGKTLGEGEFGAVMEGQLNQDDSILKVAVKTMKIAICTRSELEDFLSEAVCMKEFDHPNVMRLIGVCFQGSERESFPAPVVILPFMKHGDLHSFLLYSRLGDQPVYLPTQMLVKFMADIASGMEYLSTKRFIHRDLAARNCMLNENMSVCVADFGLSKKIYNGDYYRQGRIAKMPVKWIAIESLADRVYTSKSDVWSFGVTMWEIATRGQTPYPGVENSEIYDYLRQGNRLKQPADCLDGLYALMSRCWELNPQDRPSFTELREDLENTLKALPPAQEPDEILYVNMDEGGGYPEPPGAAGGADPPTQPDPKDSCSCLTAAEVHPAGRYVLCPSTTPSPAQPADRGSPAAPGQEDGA

Chain of Mitogen-activated protein kinase 10 (Homo sapiens) (P53779 whole entry): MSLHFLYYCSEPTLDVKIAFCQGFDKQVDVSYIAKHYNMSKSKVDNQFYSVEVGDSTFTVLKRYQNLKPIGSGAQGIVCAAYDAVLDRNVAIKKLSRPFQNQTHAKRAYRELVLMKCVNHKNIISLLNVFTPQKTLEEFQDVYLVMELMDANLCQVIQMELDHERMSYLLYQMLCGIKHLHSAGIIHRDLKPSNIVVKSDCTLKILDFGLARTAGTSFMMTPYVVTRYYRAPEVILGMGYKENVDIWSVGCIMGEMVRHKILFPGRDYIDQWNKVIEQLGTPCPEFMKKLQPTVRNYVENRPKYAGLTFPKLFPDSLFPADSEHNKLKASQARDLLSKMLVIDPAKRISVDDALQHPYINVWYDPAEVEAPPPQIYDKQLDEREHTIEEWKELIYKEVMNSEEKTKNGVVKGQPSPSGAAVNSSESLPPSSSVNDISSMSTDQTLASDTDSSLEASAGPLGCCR
Chain of Mitogen-activated protein kinase 9 (Homo sapiens) (P45984 whole entry, looked up): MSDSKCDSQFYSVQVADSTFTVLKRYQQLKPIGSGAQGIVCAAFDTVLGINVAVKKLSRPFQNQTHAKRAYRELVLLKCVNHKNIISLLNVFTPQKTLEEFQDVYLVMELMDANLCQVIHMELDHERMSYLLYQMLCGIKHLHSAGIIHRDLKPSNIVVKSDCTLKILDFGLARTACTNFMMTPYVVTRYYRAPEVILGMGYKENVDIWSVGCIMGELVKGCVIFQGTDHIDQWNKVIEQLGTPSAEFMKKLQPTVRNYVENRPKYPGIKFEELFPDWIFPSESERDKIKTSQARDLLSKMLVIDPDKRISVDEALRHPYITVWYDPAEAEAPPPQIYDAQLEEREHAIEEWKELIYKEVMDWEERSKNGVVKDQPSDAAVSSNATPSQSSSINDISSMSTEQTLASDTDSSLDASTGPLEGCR

In the case of `C=CC(=O)Nc1cc(CNc2nc(Nc3ccc(N4CCOCC4)c(OC)c3)c(C(N)=O)c3nccn23)ccc1Cl`, the inhibition (as a rule, the change of the read-out against control, counted positive when it falls) in experiment [1] is > 90%; in experiment [2], > 90%; in experiment [4], 72.5%; in experiment [7] it was > 90%; in experiment [8], > 90%; in experiment [13], > 90%. Also, the Activity result is “Dose-Dependent Effect” with Splenocyte [3], 10.8% with Splenocyte [6] and “Dose-Dependent Effect” in the experiment with Splenocyte [10]. For the same compound, the outcome with Jurkat, in the experiment with Mus musculus [9], in the experiment on Mus musculus [11] and with Mus musculus [12] was Active. In the experiment on Splenocyte [5], the result was inactive.

The record behind these values is ChEMBL document CHEMBL5365427, “Discovery and Structural Optimization of Covalent ZAP-70 Kinase Inhibitors against Psoriasis” (J Med Chem, 2023).
